17 molecules from US5712417A, “Inhibitors of retroviral proteases” (Abbott Laboratories, priority 1989, dated 1998) can be followed below.

Structures are written as SMILES. pIC50: −log10 of the molar value. Structures can show the parent of a compound that is named as a salt.

In one assay the target is T1, HIV protease (Human immunodeficiency virus type 1 group M subtype B, UniProt P04585).
T1 construct: HIV protease consists of 99 amino acids and is evidently split off by itself from the pol polyprotein
Briefly: Inhibition of HIV protease (cleavage of H-Ser-Phe-Asn-Phe-Opr-Gln-Ile-OH, HPLC). Format: biochemical. To be noted: inhibitor concentration at which the cleavage rate is halved; pH 6, 2 hours; read-out: IC50. The source says:
The compounds of the formula (I) according to the invention have enzyme-inhibiting properties. In particular, they inhibit the action of retroviral aspartyl proteases, such as that of HIV protease. Their enzyme-inhibitory action, which is in the milli- to subnanomolar range, can be determined as follows.
The heptapeptide: H-Ser-Phe-Asn-Phe-Pro-Gln-Ile-OH (P. L. Darke et al., Biophys. Res. Commun. 156 (1988) 297-303), inter alia, has hitherto been used as the substrate of HIV protease. HIV protease cleaves the substrate here between the second Phe and Pro.
General instructions for testing inhibitors of HIV proteases: a) Preparation of the substrate solution:
2 mg of H-Ser-Phe-Asn-Phe-Opr-Gln-Ile-OH (H-Opr-OH=5-oxaproline) are dissolved in 1 ml of MGTE15 buffer (use of ultrasound if necessary) and the solution is then filtered over a sterile filter (0.45 μm). […]
b) Preparation of the inhibitor solution:
2.5 times the desired molarity of the inhibitor per ml of solution are weighed out and dissolved in DMSO (10% of the final volume). The solution is diluted to the final volume with MGTE15 buffer and filtered over a sterile filter (0.45 μm). […]
c) Preparation of the protease solution:
5 μl of the HIV protease solution are diluted with MGTE25 buffer as required.
10 μl portions of the substrate solution are pipetted into test-tubes (16×100) with a screw cap. For the blank experiment, 10 μl of MGTE15 buffer containing 10% of DMSO are pipetted into a test-tube. 10 μl portions of the inhibitor solutions are added to the other test-tubes. The mixtures are incubated at 37° C. for 5-10 minutes and 5 μl of the protease solution are then added to each sample, After reaction at 35° C. for 2 hours, 10 or 20 μl (depending on the sensitivity of the HPLC apparatus) of each sample are then pipetted off, introduced into microvials and diluted with 120 μl of the HPLC mobile phase. […]
e) Conditions for the HPLC analysis:
20% (weight/weight) of aceto-
Column: Merck ®LICHROSORB RP18 (5 μm) 250×4
Column temperature: 42° C.
Detector parameters: 215 nm, 0.08 AUF, 18.2° C.
Analysis time: 11 minutes
Retention time of the substrate: 8.1 minutes
Retention time of the N-terminal tetrapeptide: 3.9 minutes
20 mM morpholinoethanesulfonic acid (MES)
15% (weight/volume) of glycerol
0.1% (volume/volume) of Triton ×100
1 mM phenylmethylsulfonyl fluoride (PMSF)
25% (weight/volume) of glycerol, additionally 1 mM dithiothreitol (DTT) The MES, EDTA, NaCl, DTT and PMSF are weighed into a conical flask and dissolved in a little water and the pH is brought to 6. The corresponding amount of glycerol is weighed into a measuring flask and ®Triton ×100 is pipetted in. The aqueous solution is transferred to the measuring flask and made up to the mark with water.
A 0.1M solution is prepared from orthophosphoric acid (FLUKA extra pure analytical grade). This solution is brought to exactly pH 2.5 with triethylamine (FLUKA extra pure analytical grade). The weight of the solution is determined and the corresponding amount of acetonitrile (fume cupboard) is weighed in. The mixture is mixed thoroughly and degassed with helium 5.0 for about 5 minutes.
Under the conditions chosen here, heptapeptides are separated from the N-terminal tetrapeptide formed during enzymatic cleavage. The percentage content of the tetrapeptide peak in respect of the sum of tetrapeptide+heptapeptide corresponds to the cleaving rate. The following IC50 values indicate the inhibitor concentration at which the cleavage rate is halved.
As usually defined, the pIC50 is −log10 of the IC50, conventionally taken in molar units. As to `CC(C)[C@H](NC(=O)[C@@H](N)Cc1ccccc1)C(=O)N[C@@H](Cc1ccc2c(c1)OCO2)[C@@H](O)[C@H](O)[C@H](Cc1ccc2c(c1)OCO2)NC(=O)[C@@H](NC(=O)[C@@H](N)Cc1ccccc1)C(C)C` [Example 154, N,N'-bis-(L-Phenylalanyl-L-valyl)-2S,5S-diamino-1,6-bis-(3,4-methylenedioxyphenyl)-hexane-3R,4R-diol dihydro-chloride], the pIC50 is 9.00.

Regarding `CSCC[C@H](NC(=O)OC(C)(C)C)C(=O)N[C@H](C(=O)N[C@@H](Cc1ccccc1)[C@H](O)[C@@H](O)[C@H](Cc1ccccc1)NC(=O)[C@@H](NC(=O)[C@H](CCSC)NC(=O)OC(C)(C)C)C(C)C)C(C)C` [Example 75, N,N'-bis-<tert.-Butoxycarbonyl-L-methionyl-L-valyl>-2S,5S-diamino-1,6-diphenylhexane-3S,4S-diol], the pIC50 was 7.72. Still for that read-out and setting: with `CC(C)[C@H](NC(=O)[C@H](Cc1ccccc1)NC(=O)OC(C)(C)C)C(=O)N[C@@H](Cc1ccccc1)[C@H](O)[C@H](O)[C@H](Cc1ccccc1)NC(=O)[C@@H](NC(=O)[C@H](Cc1ccccc1)NC(=O)OC(C)(C)C)C(C)C` [Example 7, N,N'-bis-(tert.-Butoxycarbonyl-L-phenylalanyl-L-valyl)-2S,5S-diamino-1,6-diphenylhexane-3R,4S-diol] the figure was 7.74. Same read-out and setting: next, `CC(C)[C@H](NC(=O)[C@@H](N)CCS(C)(=O)=O)C(=O)N[C@@H](Cc1ccccc1)[C@@H](O)[C@H](O)[C@H](Cc1ccccc1)NC(=O)[C@@H](NC(=O)[C@@H](N)CCS(C)(=O)=O)C(C)C` [Example 89, N,N'-bis-<L-(S-Dioxo)methionyl-L-valyl>-2S,5S-diamino-1,6-diphenylhexane-3R,4R-diol dihydrochloride]: 8.74; `CC(C)[C@H](NC(=O)[C@H](CCS(C)(=O)=O)NC(=O)OC(C)(C)C)C(=O)N[C@@H](Cc1ccccc1)[C@@H](O)[C@H](O)[C@H](Cc1ccccc1)NC(=O)[C@@H](NC(=O)[C@H](CCS(C)(=O)=O)NC(=O)OC(C)(C)C)C(C)C` [Example 90, N,N'-bis-<tert.-Butoxycarbonyl-L-(S-dioxo)methionyl-L-valyl>-2S,SS-diamino-1,6-diphenylhexane-3R,4R-diol]: 8.66. Same read-out and setting: next, `CC(C)[C@H](NC(=O)[C@H](Cc1cccc2ccccc12)NC(=O)OC(C)(C)C)C(=O)N[C@@H](Cc1ccccc1)[C@@H](O)[C@H](O)[C@H](Cc1ccccc1)NC(=O)[C@@H](NC(=O)[C@H](Cc1cccc2ccccc12)NC(=O)OC(C)(C)C)C(C)C` [Example 40, N,N'-bis-(tert.-Butoxycarbonyl-L-(1-naphthyl)-alanyl-L-valyl)-2S,5S-diamino-1,6-diphenylhexane-3R,4R-diol]: 7.89; `CC(C)[C@H](NC(=O)[C@@H](N)Cc1cccc2ccccc12)C(=O)N[C@@H](Cc1ccccc1)[C@@H](O)[C@H](O)[C@H](Cc1ccccc1)NC(=O)[C@@H](NC(=O)[C@@H](N)Cc1cccc2ccccc12)C(C)C` [Example 39, N,N'-bis-(L-(1-Naphthyl)-alanyl-L-valyl)-2S,5S-diamino-1,6-diphenylhexane-3R,4R-diol dihydrochloride]: 8.89; `CC(C)[C@H](NC(=O)[C@H](Cc1ccc2ccccc2c1)NS(C)(=O)=O)C(=O)N[C@@H](Cc1ccccc1)[C@@H](O)[C@H](O)[C@H](Cc1ccccc1)NC(=O)[C@@H](NC(=O)[C@H](Cc1ccc2ccccc2c1)NS(C)(=O)=O)C(C)C` [Example 125, N,N,-bis-<N-Mesyl-β-naphthylalanyl-L-valyl>-2S,5S-diamino-1,6-diphenylhexane-3R,4R-diol]: 9.12.

For the molecule `CC[C@H](C)[C@H](NC(=O)[C@@H](N)Cc1ccccc1)C(=O)N[C@@H](Cc1ccccc1)[C@H](O)[C@@H](O)[C@H](Cc1ccccc1)NC(=O)[C@@H](NC(=O)[C@@H](N)Cc1ccccc1)[C@@H](C)CC` [Example 65, N,N'-bis-<L-Phenylalanyl-L-isoleucyl>-2S,5S-diamino-1,6-diphenylhexane-3S,4S-diol dihydrochloride], the pIC50 is 8.74. On the same count and under the same terms, with `CC(C)(C)[C@H](NC(=O)[C@H](Cc1ccccc1)CS(=O)(=O)C(C)(C)C)C(=O)N[C@@H](Cc1ccccc1)[C@@H](O)[C@H](O)[C@H](Cc1ccccc1)NC(=O)[C@@H](NC(=O)[C@H](Cc1ccccc1)CS(=O)(=O)C(C)(C)C)C(C)(C)C` [Example 91, N,N'-bis-<(2S-(1,1-Dimethylethylsulfonylmethyl)-3-phenyl-propionyl)-L-tert.-butylglycyl>-2S, 5S-diamino-1,6-diphenylhexane-3R, 4R-diol] the figure was 8.89; with `CC(C)[C@H](NC(=O)[C@H](Cc1ccccc1)NC(=O)OC(C)(C)C)C(=O)N[C@@H](CC1CCCCC1)[C@H](O)[C@@H](O)[C@H](CC1CCCCC1)NC(=O)[C@@H](NC(=O)[C@H](Cc1ccccc1)NC(=O)OC(C)(C)C)C(C)C` [Example 45, N,N'-bis-(tert.-Butoxycarbonyl-L-phenylalanyl-L-valyl)-2S,5S-diamino-1,6-dicyclohexylhexane-3S,4S-diol], 5.82; with `CC(C)[C@H](NC(=O)[C@H](Cc1cccc2ccccc12)CS(=O)(=O)C(C)(C)C)C(=O)N[C@@H](Cc1ccccc1)[C@H](O)[C@@H](O)[C@H](Cc1ccccc1)NC(=O)[C@@H](NC(=O)[C@H](Cc1cccc2ccccc12)CS(=O)(=O)C(C)(C)C)C(C)C` [Example 51, N,N'-bis-<(2S-(1,1-Dimethylethylsulfonylmethyl)-3-(1-naphthyl)-propionyl)-L-valyl>-2S,5S-diamino-1,6-diphenyl-hexane-3S,4S-diol], 9.10.

In the case of `CC(C)[C@H](NC(=O)[C@@H](N)Cc1ccccc1)C(=O)NC[C@@H](O)[C@H](O)CNC(=O)[C@@H](NC(=O)[C@@H](N)Cc1ccccc1)C(C)C` [Example 113, N,N,-bis-<L-phenylalanyl-L-valyl>-1,4-diaminobutane-2R,3R-diol dihydrochloride], the pIC50 was 7.40. The same measure, in the same setting: next, `COc1ccc(C[C@H](NC(=O)OC(C)(C)C)C(=O)N[C@H](C(=O)N[C@@H](Cc2ccccc2)[C@H](O)[C@@H](O)[C@H](Cc2ccccc2)NC(=O)[C@@H](NC(=O)[C@H](Cc2ccc(OC)cc2)NC(=O)OC(C)(C)C)C(C)C)C(C)C)cc1` [Example 77, N,N'-bis-<tert.-Butoxycarbonyl-(O-methyltyrosyl)-L-valyl>-2S,5S-diamino-1,6-diphenylhexane-3S,4S-diol]: 8.04; `CC(C)[C@H](NC(=O)Cc1ccccn1)C(=O)N[C@@H](Cc1ccccc1)[C@@H](O)[C@H](O)[C@H](Cc1ccccc1)NC(=O)[C@@H](NC(=O)Cc1ccccn1)C(C)C` [Example 58, N,N'-bis-<(2-Pyridyl)-acetyl-L-valyl>-2S,5S-diamino-1,6-diphenylhexane-3R,4R-diol]: 7.31.

Staying with this assay, now noted: read-out: IC50.
Take `CC(C)[C@H](NC(=O)[C@@H](N)Cc1c[nH]c2ccccc12)C(=O)N[C@@H](Cc1ccccc1)[C@@H](O)[C@H](O)[C@H](Cc1ccccc1)NC(=O)[C@@H](NC(=O)[C@@H](N)Cc1c[nH]c2ccccc12)C(C)C` [Example 118, N,N'-bis-<L-Tryptophyl-L-valyl>-2S,5S-diamino-1,6-diphenylhexane-3R,4R-dioldihydrochloride]: the negative logarithm of the IC50 (pIC50) was 8.92. On the same count and under the same terms, with `CC(C)[C@H](NC(=O)[C@@H](N)Cc1ccccc1)C(=O)N[C@@H](Cc1ccccc1)[C@H](O)[C@H](O)[C@H](Cc1ccccc1)NC(=O)[C@@H](NC(=O)[C@@H](N)Cc1ccccc1)C(C)C` [Example 18, N,N'-bis-(L-Phenylalanyl-L-valyl)-2S,5S-diamino-1,6-diphenylhexane-3R,4S-diol dihydrochloride] the figure was 8.92.
